Patent publication US20220280625A1 (Northwestern University, priority 2019, published 2022)
Each block holds one compound with its values, some of them ahead of it. Bridge positions count the residues as written; N and C are the ends. Square brackets hold non-standard residues; d marks the D form. Ends that are not written are not given here. Peptide text beside a SMILES is read from it. * marks the point of attachment. X1 = O=C1[C@@H]2[C@H](C(=O)N1CCCCCC(=O)*)[C@H]1C=C[C@@H]2C1; d(aIle) = CC[C@H](C)[C@@H](N)C(=O)O

Legend:
choroidal angiogenesis = test: Ex vivo choroidal sprouting assay; format: cell-based; settings: FIGS. 24B-24D
Procedure: Ex vivo choroidal sprouting assay. As a first step towards determining the anti-angiogenic properties of the ABT898 PLPs, we performed an ex vivo choroidal sprouting assay. Briefly, eyes are enucleated, dissection is performed to remove the cornea, iris, lens, retina, and vitreous. The peripheral RPE-choroid-sclera complex is plated in Matrigel, angiogenesis develops spontaneously over Day 4-Day 7, and can be quantitated using reverse phase brightfield microscopy (FIG. 24A). ABT898 peptide had no effect upon choroidal angiogenesis (FIGS. 24B and 24C). Alternatively, ABT898 Ester and Amide PLPs, which are not hydrolysable, reduced angiogenesis by 24% and 81%, respectively. Cell penetrating peptides that are rich in arginine residues, aid the cellular penetration of cargo via endocytosis. In order to enhance the cellular penetration capacity and the solubility of the PLPs we modified the C-terminus with arginine moieties. […] Without wishing to be bound by any particular theory, we believe this is because the peptide alone is degraded in the Matrigel milieu. […] In addition, we performed a dose dependent analysis of growth area at Day 4 for treatment with ABT898 amide RR PLP, and the results are shown in FIG. 25.
Ex Vivo Choroidal Sprouting Assay: Anti-VEGF PLPs. […]

thermolysin [1] = target: T1, thermolysin (Bacillus thermoproteolyticus, UniProt P00800); test: Enzyme degradation kinetics of ABT898 peptide and PLP with thermolysin (HPLC); format: in vitro ADME; settings: 200 μM stock, thermolysin 0.1 μM, over 450 min; PLP = AR PLP (FIG. 26A)
T1 sequence (P00800 233-548): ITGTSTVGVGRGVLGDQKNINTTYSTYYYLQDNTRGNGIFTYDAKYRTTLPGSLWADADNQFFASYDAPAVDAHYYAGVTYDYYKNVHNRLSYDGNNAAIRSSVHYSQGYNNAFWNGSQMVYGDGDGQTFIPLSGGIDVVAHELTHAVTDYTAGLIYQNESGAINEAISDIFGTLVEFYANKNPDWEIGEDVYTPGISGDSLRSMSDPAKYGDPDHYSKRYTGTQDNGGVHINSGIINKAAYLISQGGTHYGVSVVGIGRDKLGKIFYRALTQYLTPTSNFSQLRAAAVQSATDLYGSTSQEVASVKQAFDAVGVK
Procedure: FIGS. 26A-26B. Enzyme degradation kinetics and BLI assay. FIG. 26A. Percent enzymatic cleavage of peptide and PLP (AR PLP) upon the treatment of thermolysin (peptide:enzyme=2000:1) was monitored by HPLC over 450 min. FIG. 26B. Bio-layer interferometry data measuring the binding constant between AR PLP and CD36 receptor.
Enzyme Degradation Kinetics. An important feature of the PLP platform is that the globular structure of peptides arranged on a polymeric scaffold impart high proteolytic resistance. We performed an enzyme resistance assay to confirm that the PLP is resistant to proteolysis as compared to the peptide alone. Both peptide and PLP stock solutions (200 μM) were treated with thermolysin enzyme (0.1 μM) and their degradation profiles were monitored using high performance liquid chromatography (HPLC). […] We calculated the area under the peak at each time point to construct the percent cleaved and plotted it against time for both peptide and PLP (FIG. 26A).

thermolysin [2] = target: T1, thermolysin
Procedure: To discern the relationship between backbone structure and peptide stability against proteolysis, enzyme kinetics of each peptide brush polymer with different backbones were measured in PBS buffer with added protease (i.e., thermolysin).
For enzyme-triggered cleavage experiments, the molar ratio of thermolysin to peptide was set to 1:200. Moreover, the temperature was set to 37° C. […] Then thermolysin (0.1 mg, 3.0 nmol, 1 equiv.) was added into the polymer solution which was stirred in a preheated oil bath at 37° C.

[3] = Systolic blood pressure by tail-cuff system in mice; format: in vivo, C57BL/6 mice; settings: intraperitoneal injection, measured for 20 minutes
Procedure: Healthy C57BL/6 mice were injected with either terlipressin peptide or terlipressin PLP and the systolic blood pressure was measured over time by employing a tail-cuff system (CODA™). The mice were anesthetized with ketamine and placed in restraints over a heated pad. Following 5 minutes of background measurements, the drugs were administrated by intraperitoneal injection (IP) and the measurements continued for another 20 minutes (limited by the effect of ketamine). The delta BP was measured and plotted as a function of time.

[4] = human, in vivo; cited from earlier work
elastase [5] = test: in vitro; settings: isolated enzyme elastase, pH 7.2
Procedure: Enzymatic cleavage. Elastase was chosen as a model protease since it can cleave the three glycine fragment for easy recognition of cleavage product which is also similar to the natural initial cleavage product in serum. Remaining peptide percentage was measured by the ratio between the area under the curve at each time point and the area under the curve of the first time point.
Twenty microliters (20 μL) of elastase (1 mM), 20 μL of monomer (FIG. 9A) or polymer (FIG. 9B) (2 mM), 20 μL Tris buffer (250 mM Tris pH 7.2, 1500 mM NaCl, 500 mM CaCl2)) and 140 μL of water were added to a HPLC vial and loaded in the autosampler carousel and a sample immediately taken for injection at 1 min. Subsequently, the reaction was monitored via RP-HPLC (10-80% buffer B) with an injection every 50 minutes following the initial injection.
The ratio of the AUC at each time point relative to the first time point is plotted.

elastase [6] = test: 20 μL of elastase (1 mM), 20 μL Tris buffer (250 mM Tris pH 7.2, 1500 mM NaCl, 500 mM CaCl2) and 140 μL of water; settings: up to 550 min

Compound: ABT898 peptide: synthetic peptide GVi(allo)SQIRP which mimics the TSP1 type-1 repeat (GV[d(aIle)]SQIRP) [reference compound]
effect upon choroidal angiogenesis (choroidal angiogenesis): no effect
degradation by thermolysin (HPLC peak over time) (thermolysin [1]): rapid degradation

Compound: poly(PepNorIm15): peptide brush polymer of GPLGLAGGWGERDGS norbornene dicarboxyimide monomer, DP 15 (also: peptide is a side chain of a norbornene dicarboxyimide brush polymer, DP 15)
proteolytic stability against thermolysin (thermolysin [2]): demonstrated resistance to proteolysis

Compound: NCCCC[C@H](NC(=O)[C@@H]1CCCN1C(=O)[C@@H]1CSSC[C@H](NC(=O)CNC(=O)CNC(=O)CN)C(=O)N[C@@H](Cc2ccc(O)cc2)C(=O)N[C@@H](Cc2ccccc2)C(=O)N[C@@H](CCC(N)=O)C(=O)N[C@@H](CC(N)=O)C(=O)N1)C(=O)NCC(N)=O [terlipressin, Terlipressin] (H-GGGCYFQNCPKG-NH2; disulfide 4-9)
change in systolic blood pressure over time (delta BP) [3]: immediate and very large increase in blood pressure, which dropped rapidly in a manner of few minutes
distribution half-life [4]: 8 min
elimination half-life [4]: 6 min

remaining at 550 min, 0.2 mM (elastase [5]): ~50%
Compound: NCCCC[C@H](NC(=O)[C@@H]1CCCN1C(=O)[C@@H]1CSSC[C@H](NC(=O)CNC(=O)CNC(=O)CNC(=O)CCCCCN2C(=O)[C@@H]3[C@H](C2=O)[C@H]2C=C[C@@H]3C2)C(=O)N[C@@H](Cc2ccc(O)cc2)C(=O)N[C@@H](Cc2ccccc2)C(=O)N[C@@H](CCC(N)=O)C(=O)N[C@@H](CC(N)=O)C(=O)N1)C(=O)NCC(N)=O [terlipressin peptide monomer] (X1-GGGCYFQNCPKG-NH2; disulfide 4-9)

cleaved bond (elastase [6]): G-C
Compound: GGGCYFQNCPKG
